The record followed here is patent publication US9212164B2, “Pesticidal compositions and processes related thereto” (Dow AgroSciences LLC, priority 2012, dated 2015).

Assay [1] concerns Cabbage Looper (CL) (Trichoplusia ni). As to the kind of experiment: Bioassays on CL, 128-well diet tray assay. The following applies: 168 h, 50 μg/cm^2 on artificial diet, second instar larvae, five to seven days, 25° C., read-out: CL Rating (percent mortality). The format is in vivo. On the procedure: (§1) Certain molecules disclosed in this document were tested against BAW, CEW and CL using procedures described in the following examples. In the reporting of the results, the “BAW & CEW & CL Rating Table” was used (See Table Section).
Bioassays on CL (Trichoplusia ni)
Bioassays on CL were conducted using a 128-well diet tray assay. One to five second instar CL larvae were placed in each well (3 mL) of the diet tray that had been previously filled with 1 mL of artificial diet to which 50 μg/cm^2 of the test compound (dissolved in 50 μL of 90:10 acetone-water mixture) had been applied (to each of eight wells) and then allowed to dry. Trays were covered with a clear self-adhesive cover, and held at 25° C., 14:10 light-dark for five to seven days. Percent mortality was recorded for the larvae in each well; activity in the eight wells was then averaged. The results are indicated in the table entitled “Table 4: Assay Results Part 2” (See Table Section).

Assay [2] has as its system Beet Armyworm (BAW) (Spodoptera exigua). In words: Bioassays on BAW, 128-well diet tray assay. It counts as in vivo. The following applies: Spodoptera exigua, 168 h; 50 μg/cm^2 on artificial diet, second instar larvae, five to seven days, 25° C.; read-out: BAW Rating (percent mortality). On the procedure:
as §1
Bioassays on BAW (Spodoptera exigua)
Bioassays on BAW were conducted using a 128-well diet tray assay. One to five second instar BAW larvae were placed in each well (3 mL) of the diet tray that had been previously filled with 1 mL of artificial diet to which 50 μg/cm^2 of the test compound (dissolved in 50 μL of 90:10 acetone-water mixture) had been applied (to each of eight wells) and then allowed to dry. Trays were covered with a clear self-adhesive cover, and held at 25° C., 14:10 light-dark for five to seven days. Percent mortality was recorded for the larvae in each well; activity in the eight wells was then averaged. The results are indicated in the tables entitled “Table 3: Assay Results Part 1” and “Table 4: Assay Results Part 2” (See Table Section).

For the compound `O=C(NC1(C(=O)NCC(F)(F)F)CC1)c1ccc(/C=C/C(c2ccc(Br)c(Br)c2)C(F)(F)F)cc1C(F)(F)F` (stereo not drawn) [Compound P425], the mortality at 50 µg/cm2 in assay [1] and in assay [2] was 50 to 100% in each case.

Turning to `CCc1cc(Cl)cc(C(/C=C/c2ccc(C(=O)NC3(C(=O)NCC(F)(F)F)CC3)c(Br)c2)C(F)(F)F)c1` (stereo not drawn) [FA13], the mortality at 50 µg/cm2 in assay [1] and in assay [2] was 50 to 100% in each case.

With `O=C(NC1(C(=O)NCCF)CC1)c1ccc(/C=C/C(c2cc(Br)cc(Br)c2)C(F)(F)F)cc1C(F)(F)F` (stereo not drawn) [Compound P1200], the mortality at 50 µg/cm2 in assay [1] and in assay [2] was 50 to 100% throughout.

Turning to `Cc1cc(C(/C=C/c2ccc(C(=O)NC3(C(=O)NCC(F)(F)F)CC3)c(C(F)(F)F)c2)C(F)(F)F)cc(C)c1F` (stereo not drawn) [Compound P335], the mortality at 50 µg/cm2 in assay [1] and in assay [2] was 50 to 100% throughout.

As to `O=C(NC1(C(=O)NCC(F)(F)F)CC1)c1ccc(/C=C/C(c2cc(Cl)cc(Cl)c2)C(F)(F)C(F)(F)F)cc1Br` (stereo not drawn) [Compound P1043], the mortality at 50 µg/cm2 in assay [1] and in assay [2] was 50 to 100% throughout.

As to `O=C(NC1(C(=O)NCC(F)(F)F)CC1)c1ccc(/C=C/C(c2cc(Br)cc(Br)c2)C(F)(F)F)cc1Br` (stereo not drawn) [Compound P1183], the mortality at 50 µg/cm2 in assay [1] and in assay [2] was 50 to 100% throughout.

Regarding `COc1ccc(CNC(=O)C2(NC(=O)c3ccc(/C=C/C(c4cc(Cl)c(Cl)c(Cl)c4)C(F)(F)F)cc3Br)CC2)cc1` (stereo not drawn) [FA33], the mortality at 50 µg/cm2 in assay [1] and in assay [2] was 50 to 100% in each case.

As for `O=C(NC1(C(=O)NC2CCCCC2)CC1)c1ccc(/C=C/C(c2cc(Cl)c(Cl)c(Cl)c2)C(F)(F)F)cc1Br` (stereo not drawn) [FA22], the mortality at 50 µg/cm2 in assay [1] is 50 to 100%; in assay [2], 0%.

As for `CC(F)(F)C(/C=C/c1ccc(C(=O)NC2(C(=O)NCC(F)(F)F)CC2)c(Br)c1)c1ccc(Cl)c(Cl)c1` (stereo not drawn) [FA12], the mortality at 50 µg/cm2 in assay [1] and in assay [2] was 50 to 100% in each case.

`Cc1cc(C(/C=C/c2ccc(C(=O)NC3(C(=O)NCC(F)(F)F)CC3)c(Br)c2)C(F)(F)F)cc(Cl)c1Cl` (stereo not drawn) [FA4]: the mortality at 50 µg/cm2 in assay [1] and in assay [2] was 50 to 100% each time.

Consider `CC(C)CNC(=O)C1(NC(=O)c2ccc(/C=C/C(c3cc(Cl)c(Cl)c(Cl)c3)C(F)(F)F)cc2Br)CC1` (stereo not drawn) [FA30], for which the mortality at 50 µg/cm2 in assay [1] and in assay [2] was 50 to 100% each time.

For `N#Cc1cc(C(/C=C/c2ccc(C(=O)NC3(C(=O)NCC(F)(F)F)CC3)c(Br)c2)C(F)(F)F)ccc1F` (stereo not drawn) [Compound P513], the mortality at 50 µg/cm2 in assay [1] and in assay [2] was 50 to 100% throughout.

Consider `O=C(NC1(C(=O)NCC(F)(F)F)CC1)c1ccc(/C=C/C(c2cc(Br)c(Cl)c(Br)c2)C(F)(F)F)cc1C(F)(F)F` (stereo not drawn) [FA7], for which the mortality at 50 µg/cm2 in assay [1] and in assay [2] was 50 to 100% each time.

For the compound `O=C(NC1(C(=O)NCCF)CC1)c1ccc(/C=C/C(c2cc(Cl)c(Cl)c(Cl)c2)C(F)(F)F)cc1C(F)(F)F` (stereo not drawn) [Compound P1020], the mortality at 50 µg/cm2 in assay [1] and in assay [2] was 50 to 100% in each case.

As to `O=C(NC1(C(=O)Nc2cccc(Cl)c2)CC1)c1ccc(/C=C/C(c2cc(Cl)c(Cl)c(Cl)c2)C(F)(F)F)cc1Br` (stereo not drawn) [FA38], the mortality at 50 µg/cm2 in assay [1] and in assay [2] was 0 to 50% throughout.

Take `CC(F)(F)C(/C=C/c1ccc(C(=O)NC2(C(=O)NCC(F)(F)F)CC2)c(C(F)(F)F)c1)c1ccc(Cl)c(Cl)c1` (stereo not drawn) [FA9]: the mortality at 50 µg/cm2 in assay [1] and in assay [2] was 50 to 100% throughout.

Turning to `CCNC(=O)C1(NC(=O)c2ccc(/C=C/C(c3cc(Cl)c(Cl)c(Cl)c3)C(F)(F)F)cc2C)CC1` (stereo not drawn) [Compound P1026], the mortality at 50 µg/cm2 in assay [1] and in assay [2] was 50 to 100% throughout.

For the compound `Cc1cc(/C=C/C(c2cc(Cl)c(Cl)c(Cl)c2)C(F)(F)F)ccc1C(=O)NC1(C(=O)NCC(F)(F)F)CC1` (stereo not drawn) [Compound F2], the mortality at 50 µg/cm2 in assay [1] and in assay [2] was 50 to 100% in each case.

For `Cc1cc(C(/C=C/c2ccc(C(=O)NC3(C(=O)NCC(F)(F)F)CC3)c(C(F)(F)F)c2)C(F)(F)F)ccc1F` (stereo not drawn) [Compound P336], the mortality at 50 µg/cm2 in assay [1] and in assay [2] was 50 to 100% in each case.

In the case of `O=C(NC1(C(=O)NCC(F)(F)F)CC1)c1ccc(/C=C/C(c2cccc(OC(F)(F)F)c2)C(F)(F)F)cc1Br` (stereo not drawn) [Compound P153], the mortality at 50 µg/cm2 in assay [1] and in assay [2] was 50 to 100% in each case.

`O=C(NC1(C(=O)NCC(F)(F)F)CC1)c1ccc(/C=C/C(c2cc(Cl)c(Cl)c(Cl)c2)C(F)(F)C(F)(F)F)cc1Br` (stereo not drawn) [Compound P1003]: the mortality at 50 µg/cm2 in assay [1] and in assay [2] was 50 to 100% in each case.

With `O=C(NC1(C(=O)NCC(F)(F)F)CC1)c1ccc(/C=C/C(c2cc(Cl)c(Cl)cc2Cl)C(F)(F)F)cc1Br` (stereo not drawn) [Compound P108], the mortality at 50 µg/cm2 in assay [1] and in assay [2] was 50 to 100% throughout.

On to `O=C(NC1(C(=O)Nc2cccc(C(F)(F)F)c2)CC1)c1ccc(/C=C/C(c2cc(Cl)c(Cl)c(Cl)c2)C(F)(F)F)cc1Br` (stereo not drawn) [FA37], for which the mortality at 50 µg/cm2 was 0% in assay [1] and 0 to 50% in assay [2].

As for `COCCNC(=O)C1(NC(=O)c2ccc(/C=C/C(c3cc(Cl)c(Cl)c(Cl)c3)C(F)(F)F)cc2Br)CC1` (stereo not drawn) [FA28], the mortality at 50 µg/cm2 in assay [1] and in assay [2] was 50 to 100% each time.

Consider `Cc1cc(/C=C/C(c2cc(Cl)c(Cl)c(Cl)c2)C(F)(F)F)ccc1C(=O)NC1(C(=O)NCC(F)(F)F)CCC1` (stereo not drawn) [FA1], for which the mortality at 50 µg/cm2 in assay [1] and in assay [2] was 50 to 100% each time.

Consider `O=C(NC1(C(=O)NCCn2cccn2)CC1)c1ccc(/C=C/C(c2cc(Cl)c(Cl)c(Cl)c2)C(F)(F)F)cc1Br` (stereo not drawn) [FA23], for which the mortality at 50 µg/cm2 in assay [1] and in assay [2] was 50 to 100% throughout.

For the compound `Cc1cc(/C=C/C(c2cc(Cl)c(Cl)c(Cl)c2)C(F)(F)F)ccc1C(=O)NC1(C(=S)NCC(F)(F)F)CC1` (stereo not drawn) [Compound P1011], the mortality at 50 µg/cm2 in assay [1] and in assay [2] was 50 to 100% in each case.

On to `O=C(NC1(C(=O)NCC(F)(F)F)CC1)c1ccc(/C=C/C(c2cc(F)cc(Br)c2)C(F)(F)F)cc1Br` (stereo not drawn) [Compound P198], for which the mortality at 50 µg/cm2 in assay [1] and in assay [2] was 50 to 100% each time.

In the case of `N#Cc1cc(C(/C=C/c2ccc(C(=O)NC3(C(=O)NCC(F)(F)F)CC3)c(C(F)(F)F)c2)C(F)(F)F)ccc1F` (stereo not drawn) [Compound P515], the mortality at 50 µg/cm2 in assay [1] and in assay [2] was 50 to 100% each time.

On to `O=C(NC1(C(=O)NC2COC2)CC1)c1ccc(/C=C/C(c2cc(Cl)c(Cl)c(Cl)c2)C(F)(F)F)cc1Br` (stereo not drawn) [FA20], for which the mortality at 50 µg/cm2 in assay [1] and in assay [2] was 50 to 100% each time.

On to `Cn1nc(C(F)(F)F)cc1NC(=O)C1(NC(=O)c2ccc(/C=C/C(c3cc(Cl)c(Cl)c(Cl)c3)C(F)(F)F)cc2Br)CC1` (stereo not drawn) [FA48], for which the mortality at 50 µg/cm2 in assay [1] and in assay [2] was 50 to 100% each time.

For `CCCN(C)C(=O)C1(NC(=O)c2ccc(/C=C/C(c3cc(Cl)c(Cl)c(Cl)c3)C(F)(F)F)cc2Br)CC1` (stereo not drawn) [FA42], the mortality at 50 µg/cm2 in assay [1] and in assay [2] was 50 to 100% each time.

As for `O=C(NC1(C(=O)NCC(F)(F)F)CC1)c1ccc(/C=C/C(c2cc(Cl)cc(Cl)c2)C(F)(F)C(F)(F)F)cc1C(F)(F)F` (stereo not drawn) [Compound P1045], the mortality at 50 µg/cm2 in assay [1] and in assay [2] was 50 to 100% each time.

`COCCCNC(=O)C1(NC(=O)c2ccc(/C=C/C(c3cc(Cl)c(Cl)c(Cl)c3)C(F)(F)F)cc2Br)CC1` (stereo not drawn) [FA18]: the mortality at 50 µg/cm2 in assay [1] and in assay [2] was 50 to 100% in each case.

As to `O=C(NC1(C(=O)NCC(F)(F)F)CC1)c1ccc(/C=C/C(c2cc(Cl)c(Cl)c(Cl)c2)C(F)(F)F)cc1Cl` (stereo not drawn) [Compound F1, (E)-2-Chloro-4-(4,4,4-trifluoro-3-(3,4,5-trichlorophenyl)but-1-enyl)-N-(1-(2,2,2-trifluoroethylcarbamoyl)cyclopropyl)benzamide], the mortality at 50 µg/cm2 in assay [1] and in assay [2] was 50 to 100% each time.

As to `O=C(NC1(C(=O)NCC(F)(F)F)CC1)c1ccc(/C=C/C(c2ccc(Cl)c([N+](=O)[O-])c2)C(F)(F)F)cc1Br` (stereo not drawn) [Compound P468], the mortality at 50 µg/cm2 in assay [1] and in assay [2] was 50 to 100% each time.

For `O=C(NC1(C(=O)NC2CCSC2)CC1)c1ccc(/C=C/C(c2cc(Cl)c(Cl)c(Cl)c2)C(F)(F)F)cc1Br` (stereo not drawn) [FA19], the mortality at 50 µg/cm2 in assay [1] and in assay [2] was 50 to 100% in each case.

In the case of `O=C(NC1(C(=O)NCC(F)(F)F)CC1)c1ccc(/C=C/C(c2cc(Cl)c(Br)c(Cl)c2)C(F)(F)F)cc1Br` (stereo not drawn) [FA5], the mortality at 50 µg/cm2 in assay [1] and in assay [2] was 50 to 100% each time.

For `Cc1cc(C(/C=C/c2ccc(C(=O)NC3(C(=O)NCC(F)(F)F)CC3)c(C(F)(F)F)c2)C(F)(F)F)cc(C)c1Cl` (stereo not drawn) [FA14], the mortality at 50 µg/cm2 in assay [1] and in assay [2] was 50 to 100% in each case.
